In patent USRE37101E, “Stabilized phosphate ester-based functional fluid compositions” (Solutia Inc., priority 1997, dated 2001):

Experiments:
[1] = system: rats; settings: subchronic
[2] = fresh or as designated

Row | Structure (SMILES) | NOEL ([1]; bladder hyperplasia, rats) [ppm] | Bladder Hyperplasia (finding) ([1]; in rats >5000 ppm) | Independent Lab Cond. [2] [μMHO/cm]
1 | CC(C)COP(=O)(OCC(C)C)OCC(C)C [TIBP, triisobutyl phosphate] | 5000 | None observed | 0.001
2 | CCCCOP(=O)(OCCCC)Oc1ccccc1 [DBPP, dibutyl phenyl phosphate, reference compound] |  |  | 0.008
